≈ marks a conversion by molar mass, not a printed value.
System: Kinetic aqueous solubility, PBS pH 7.4, LC-UV/MS
Experiment: Inhibitors of Cruzain: Aqueous Profiling Assay
Excerpt: Chagas Disease is a neglected tropical disease that affects over 16 million people in Latin America. The cysteine protease cruzain is essential for the survival Trypanosoma cruzi, the parasitic agent responsible for Chagas disease. Potential intervention for T. cruzi includes the inhibition of cruzain. This bioassay will summarize the ongoing development of small molecule cruzain inhbitiors. Currently, a screen of ~200k compounds and through extensive follow-up work a probe was identified. To further characterize the probe, it was tested in in vitro ADME assays. This bioassay provides profiling data on aqueous kinetic solubility (PBS @ pH 7.4), an important measure that affects in vivo bioavailability. NIH Chemical Genomics Center [NCGC] NIH Molecular Libraries Probe Production Centers Network [MLPCN] MLSCN Grant: DA024891-01 PI Name: Dr. Brian Shoichet; University of California, San Francisco
1. 8ul of reference and test compound stock solution were added to 392ul 100mM phosphate buffer (pH 7.4) 2. Sample tubes were shaken for 1 hr (1000 rpm) at room temperature 3. Samples were centrifuged (10 min at 12000 rpm) to precipitate un-dissolved particles 4. Supernatants were transferred to new tubes 5. Concentration of the supernatant was determined by LC-UV or LC-MS/MS

- solubility: 5 µM (≈ 2.03 µg/mL)
Structure (SMILES): Cc1ccc(OCCn2c(CCNC(=O)C3CCCCC3)nc3ccccc32)cc1

Source: PubChem BioAssay AID504751 (National Center for Advancing Translational Sciences (NCATS), 2011)
